Columns and labels:
BEAS-2B cells = test: Bright field morphological analysis; format: cell-based, Human; conditions: 0.1 μM, 24 h
From the text: (§1) Human colon cancer HT29 cells, colon-derived normal fibroblast CCD-18Co cells, lung cancer A549 cells, normal human bronchial epithelial (immortalized with adenovirus 12-SV40 virus hybrid Ad12SV40) BEAS-2B cells, breast cancer MDA-MB-231 cells, normal breast epithelial MCF10A cells, human osteosarcoma U-2OS cells were purchased from ATCC (Manassas, VA, United States). Primary osteoblasts were generated as reported previously ([Buondonno et al., 2016]). HMM and HMC were primary cells stabilized in culture as described ([Aldieri et al., 2004]). The use of primary cells was approved by Ethical Committee of the San Luigi Gonzaga Hospital, Orbassano, (protocol #126/2016). All subjects gave written informed consent in accordance with the Declaration of Helsinki. Cells were maintained in medium supplemented with 10% v/v fetal bovine serum, 1% v/v penicillin-streptomycin, 1% v/v L-glutamine. Morphological analysis was performed with a bright field microscope (Leica Microsystems, Wetzlar, Germany). At least 5 fields/experimental condition were examined.
(§2) FIGURE 7 Effects of phenol TPP-derivatives on mitochondria-dependent apoptosis. A549 and BEAS-2B cells were incubated 24 h in fresh medium (ctrl) or in medium containing 0.1 μM of 1 or 2. (A,B) The activity of caspase 9 and 3 was measured fluorimetrically, in duplicates. Data are means ± SD (n = 3). For both panels: ^∗p < 0.001 vs. A549 ctrl cells; °p < 0.001 for BEAS-2B cells vs. the corresponding condition in A549 cells. (C,D) Cell cycle distribution, measured in duplicates. Data are means ± SD (n = 3). For both panels: ^∗p < 0.001 vs. A549 ctrl cells: °p < 0.001 for BEAS-2B cells vs. the corresponding condition in A549 cells. (E) Bright field microscope analysis of cells. Magnification: 60 × objective (0.52 numerical aperture); 10 × ocular lens. Bar: 20 μM. The micrographs are representative of three experiments with similar results.

A549 cells = test: Bright field morphological analysis; format: cell-based, Human; conditions: 0.1 μM, 24 h, compared with untreated cells
From the text: as §1, §2

PGC-1α [1] = test: Immunoblot of nuclear PGC-1α in A549 cells; format: cell-based, Human; conditions: 0.1 μM, 4 h
PGC-1α [2] = test: Immunoblot of nuclear PGC-1α in BEAS-2B cells; format: cell-based, Human; conditions: 0.1 μM, 4 h
caspase 3 [3] = test: Caspase 3 activity in BEAS-2B cell lysates; format: cell-based, Human; conditions: 0.1 μM, 24 h
Procedure: (§3) The activity of caspase 9 and 3 was measured by incubating 20 μg cell lysates with the respective fluorogenic substrates Ac-LEHD-AMC (LEHD-AMC) or DEVD-AMC (DEVD-AMC), as reported ([Pinzón-Daza et al., 2012]). Results were expressed as nmoles AMC/mg protein.
as §2

[4] = tested on: human cancer cell lines and normal cells; test: Cell viability, panel of cancer cell lines and normal cells; format: cell-based; conditions: for IC50: Homo sapiens, all cancer cell lines examined; for concentrations with cytotoxic activity: cancer cell lines in vitro
From the text: as §1
(§4) The extracellular release of LDH, considered an index of cell damage and necrosis, was measured spectrophotometrically, as reported ([Riganti et al., 2013b]). The extracellular medium was centrifuged at 12,000 × g for 15 min to pellet cellular debris, the cells were washed with fresh medium, detached with 0.01% trypsin/EDTA, re-suspended in 0.2 ml of 82.3 mM triethanolamine phosphate-HCl (pH 7.6), and sonicated on ice with two 10-sec bursts. LDH activity was measured in the extracellular medium and in the cell lysate: 50 μl of extracellular medium or 5 μl of cell lysate were incubated at 37°C with 5 mM NADH. The reaction was started by adding 20 mM pyruvic acid and was monitored for 6 min, measuring absorbance at 340 nm using a Synergy HT Multi-Detection Microplate Reader (Bio-Tek Instruments, Winoosky, MT, United States). The reaction kinetics were linear throughout the time of measurement. Both intracellular and extracellular enzyme activities were expressed as μmol NADH oxidized/min/dish. The results were expressed as percentage of extracellular LDH versus total (intracellular plus extracellular) LDH. Cell viability was measured by the neutral red staining method, as previously reported ([Riganti et al., 2015b]). The absorbance of untreated cells was considered as 100% viability; the results were expressed as percentage of viable cells versus untreated cells. IC50 was calculated with the CompuSyn software^1.
FIGURE 4 Effects of phenolic TPP-derivatives on the viability of cancer cell lines and normal cells. Cells were incubated 72 h in fresh medium (0) or with increasing concentrations (0.1, 1, and 10 μM) of 1 and 2. Cell viability was measured spectrophotometrically in quadruplicates. […]

caspase 3 [5] = test: Caspase 3 activity in A549 cell lysates; format: cell-based, Human; conditions: 0.1 μM, 24 h
Procedure: as §3, §2

HT29 cells = test: Cell viability (neutral red), IC50; format: cell-based; conditions: Homo sapiens, HT-29, HT29 colon cancer cells, CompuSyn
From the text: as §1, §4

MCF10A cells = test: Cell viability (neutral red), IC50; format: cell-based; conditions: Homo sapiens, MCF-10A, MCF10A normal breast epithelial cells, CompuSyn
From the text: as §1, §4

[6] = tested on: HMM (human malignant mesothelioma) cells; test: Cell viability (neutral red), IC50; format: cell-based; conditions: HMM primary malignant mesothelioma cells, CompuSyn
From the text: as §1, §4

CCD-18Co cells = test: Cell viability (neutral red), IC50; format: cell-based; conditions: Homo sapiens, CCD-18Co colon-derived normal fibroblasts, CompuSyn
From the text: as §1, §4

Primary osteoblasts = test: Cell viability (neutral red), IC50; format: cell-based; conditions: Homo sapiens, Osteoblast, CompuSyn
From the text: as §1, §4

[7] = tested on: HMC (human mesothelial cells); test: Cell viability (neutral red), IC50; format: cell-based; conditions: HMC primary mesothelial cells, CompuSyn
From the text: as §1, §4

MDA-MB-231 cells = test: Cell viability (neutral red), IC50; format: cell-based; conditions: Homo sapiens, MDA-MB-231 breast cancer cells, CompuSyn
From the text: as §1, §4

Structure (SMILES)	cell morphology (BEAS-2B cells)	cell morphology (A549 cells)	nuclear level of PGC-1α (PGC-1α [1])	nuclear level of PGC-1α (PGC-1α [2])	activity of caspase 3 (caspase 3 [3])	IC50 [4]	concentrations with cytotoxic activity [4]	activity of caspase 3 (caspase 3 [5])	IC50 (HT29 cells)	IC50 (MCF10A cells)	IC50 [6]	IC50 (CCD-18Co cells)	IC50 (Primary osteoblasts)	IC50 [7]	IC50 (MDA-MB-231 cells)
CC(=O)Oc1ccc(C[P+](c2ccccc2)(c2ccccc2)c2ccccc2)cc1.[Br-] [Compound 1]	decreased cell density without appreciable morphological signs of apoptosis	reduced cell number and a clear round-shaped morphology	reduced	unaffected	remained similar to untreated cells	< 10 µM	100 to 1000 nM	strong activation	4.45 ± 0.78 µM	7.52 ± 0.43 µM	4.39 ± 0.35 µM	18.2 ± 1.29 µM	6.46 ± 0.83 µM	7.37 ± 0.89 µM	8.32 ± 1.25 µM
O=C(Oc1ccc(C[P+](c2ccccc2)(c2ccccc2)c2ccccc2)cc1C(F)(F)F)c1ccccc1.[Br-] [Compound 2]	decreased cell density without appreciable morphological signs of apoptosis	reduced cell number and a clear round-shaped morphology	reduced	unaffected	remained similar to untreated cells	< 10 µM	100 to 1000 nM	strong activation	3.81 ± 0.47 µM	6.32 ± 0.41 µM	0.82 ± 0.07 µM	7.89 ± 0.36 µM	3.41 ± 0.73 µM	39.1 ± 4.34 µM	0.34 ± 0.11 µM

— PMC5994430, “Mitochondrial Delivery of Phenol Substructure Triggers Mitochondrial Depolarization and Apoptosis of Cancer Cells” (Frontiers in Pharmacology, 2018)
